{"source": "patent EP0652290A1", "about": "“Method for regulation of NF-kB” (YISSUM RESEARCH DEVELOPMENT COMPANY OF THE HEBREW …, priority 1993, dated 1995)", "key": {"NF-κB [1]": {"test_system": "NF-κB", "assay": "NF-κB activation by EMSA, Jurkat cells stimulated with TNF-α", "type": "cell-based", "conditions": "for IC90: Homo sapiens, Jurkat cells, 30 min pretreatment, stimulated by TNF-α, EMSA, read-out: IC90, 90% inhibitory concentration, activation of NF-κB, Jurkat; for induction of NF-κB DNA-binding activity in response to PMA and TNF-α: Jurkat (TNF-α) and 70Z/3 (PMA) cell cultures, even at high concentrations", "method": "The functional significance of the inducible decay of IκBα for activation of NF-κB was tested by exposure of cell cultures to various protease inhibitors. Six distinct serine protease inhibitors with chymotrypsin-like specificity efficiently prevent the induction of NF-κB DNA-binding activity in response to PMA and TNF-α (Table 1). Constitutive DNA-binding activities, including Oct-1, were not affected and no significant cell death was observed by a dye-exclusion assay and phase-contrast microscopy at inhibitor concentrations preventing […] activation. Leupeptin, antipain and the trypsin inhibitor tosyl-Lys-methylester were not effective, even at high concentrations."}, "NF-κB [2]": {"test_system": "NF-κB", "assay": "Dose response of NF-κB DNA binding (EMSA) in Hela cells stimulated with TNFα", "type": "cell-based", "method": "Hela cells were pretreated for 5 hours with the indicated concentration of peptide aldehyde inhibitor or left untreated and then stimulated with TNFα (15ng/ml) for 20 minutes. The cells were then harvested for whole cell extract preparation. Extracts were analyzed for NF-κB DNA binding activity by electrophoretic mobility shift assay (EMSA) and relative IκBα protein levels were measured by Western blot analysis as shown in FIGURE 9.\nIC₅₀ for ZLLF was 3.4 µM and 12.1 µM for AcLLnL."}, "IκBα [3]": {"test_system": "IκBα", "assay": "IκB degradation by Western blot in HeLa S3 or Hep G2 cells after TNFα, IL-1 or PMA", "type": "cell-based, Human", "conditions": "HeLa S3 or Hep G2, 4 hours pretreatment, 20 minutes", "method": "Human HeLa S3 or Hep G2 cells were pretreated for 4 hours with the indicated peptide aldehyde prior to simulation with either TNFα (20ng/ml), IL-1(20 ng/ml) or PMA (100 µg/ml). The cells were harvested 20 minutes after induction and the extent of IκB degradation was examined via Western blot analysis using IκB specific antisera. FIGURE 7 summarizes the ability of related peptide aldehydes to block IκB degradation induced by a variety of agents which activate NF-κB. (+++) indicates greater than 85% inhibition, (++) indicates greater than 60% inhibition and (-) indicates no inhibition of IκB degradation was observed."}, "NF-κB [4]": {"test_system": "NF-κB", "assay": "NF-κB activation by EMSA, 70Z/3 cells stimulated with PMA, IL-1β or LPS", "type": "cell-based", "conditions": "for IC90: 30 min pretreatment, stimulated by PMA, EMSA, read-out: IC90, 90% inhibitory concentration, activation of NF-κB, 70Z/3; for induction of NF-κB activity in response to PMA: 25 µM"}, "IκBα [5]": {"test_system": "IκBα", "assay": "IκBα level and stability by Western blot in 70Z/3 cells", "type": "cell-based"}, "70Z/3 cells": {"test_system": "70Z/3 cells", "assay": "Inhibition of protein synthesis in 70Z/3 cells", "type": "cell-based", "conditions": "read-out: protein synthesis is inhibited", "method": "70Z/3 cells were treated with 25 µg/ml cycloheximide (Sigma). The protein synthesis inhibitor cycloheximide (CHX) activates NF-κB in 70Z/3 cells. At 10 µg/ml, protein synthesis is inhibited to 90% in 70Z/3 cells. Cell culture, extract preparation, EMSA, SDS-PAGE and Western blotting were as described above in Example 1. Densitometric scanning was done with a Howtek Scanmaster 3 and data analyzed by the software Quantity One Version 2.2."}, "NF-κB [6]": {"test_system": "NF-κB", "assay": "HIV-LTR-Luc reporter activity in Jurkat cells", "type": "cell-based", "conditions": "stimulated 8 hours, PMA 10 ng/ml", "method": "Jurkat cells were stimulated with the following reagents: (P), PMA (phorbol-12 myrislated 13-acetate), 10 ng/ml; (I), A23187 Ca⁺⁺ ionophore, 1µM; (3), anti-CD3 (OKT3), 5µg/ml; (28) anti-CD28 (monoclonal antibody 9.3), 3 µg/ml; (P/I), PMA + Ca⁺⁺ ionophore in IκBα transfected Jurkat cells; (NS) non-stimulated (0.1%, DMSO only).\nThe steps involved in the activation of NF-κB, include IκBα elimination through the appearance of the nuclear DNA binding activity, and the transcriptional activity. NF-κB activation was measured through the reporter activity of the HIV-LTR promoter, which is largely controlled by NF-κB in conjunction with the HIV Tat protein (Nabel, G., et al., Nature, 326:711-713, 1987). Jurkat cells were stimulated with the following reagents: (P), PMA (phorbol-12 myrislated 13-acetate), 10 ng/ml; (I), A23187 Ca⁺⁺ ionophore, 1µM; (3), anti-CD3 (OKT3), 5µg/ml; (28) anti-CD28 (monoclonal antibody 9.3), 3 µg/ml; (P/I), PMA + Ca⁺⁺ ionophore in IκBα transfected Jurkat cells; (NS) non-stimulated (0.1%, DMSO only). Jurkat cells were transfected by electroporation (Su, B., et al., supra) with 1 µg HIV-LTR-LUC (Israel, S., et al., Gene, 104:139-145, 1991) and 4 µg PBC-TAT. […] Following 30 hours transfection, the cells were stimulated for 8 hours and luciferase activity was determined using the Promega luciferase assay system."}, "NF-κB [7]": {"test_system": "NF-κB", "assay": "NF-κB activation by TNF-α in various other cell lines", "type": "cell-based", "conditions": "various other cells lines"}, "IκBα [8]": {"test_system": "IκBα", "assay": "IκBα phosphorylation and degradation by Western blot, Jurkat cells stimulated with PMA and Ca⁺⁺ ionophore", "type": "cell-based", "conditions": "25 µM TPCK or 400 ng/ml CsA 30 min, 100 µM PDTC 1 hour before PMA + Ca⁺⁺ ionophore", "method": "Subcellular protein extracts were prepared essentially according to Beg, A.A. et al., supra. Following 20 minutes stimulation of Jurkat cells, cytosolic extracts (50 µg/point) were analyzed by Western blot, and nuclear extracts (5 µg/point) by EMSA, as described (Henkel, T., et al., Nature, 365:182-185, 1993).\nRabbit anti-IκBα was prepared against the GST-IκBα fusion protein by standard methods. The specifity of the antibodies was confirmed in competition assays using recombinant IκBα protein.\nOn the basis of the results in Example 3, phosphorylation of IκBα, in parallel to NF-κB activation, is induced according to the physiological requirements for T cell activation. Cell stimulation and extract preparation was as described above. […] Duration of Jurkat cell stimulation with PMA (10 ng/ml) and Ca⁺⁺ ionophore (1µM) was determined by Western blot analysis. […]\nN-acetyl-Leu-Leu-Norleucinal (AcLLnL) is a reversible non-alkylating proteosome inhibitor not likely to disturb post-translation modification events. […] Anti-Rel A serum was a rabbit polyclonal antiserum prepared against the C-terminus portion of Rel A. In FIGURE 6a, cells were pretreated for 4 hours with 50 µg/ml AcLLnL, stimulated with PMA (10 ng/ml) and Ca⁺⁺ ionophore (1 µM) for the time intervals indicated and analyzed by Western blot. […]"}}, "note": "Where a SMILES comes first, the peptide text is derived from it. The star is where a group is joined. Cbz = O=C(OCc1ccccc1)*; CH2Cl = ClC*", "data": [{"compound": "CCOC(=O)[C@H](Cc1ccc(O)cc1)NC(=O)c1ccccc1", "note": "[N-Benzoyl-L-Tyr-ethylester (BTEE), N-Benzoyl-L-Tyr-ethylester]", "values": [{"measurement": "IC90", "setting": "NF-κB [1]", "result": 1000, "unit": "µM"}]}, {"compound": "benzyloxycarbonyl-Leu-Leu-Phenylalaninal [ZLLF]", "values": [{"measurement": "TNFα induced NF-κB activity", "setting": "NF-κB [2]; 1µM to 200 µM, 5 hours pretreatment, TNFα 15ng/ml 20 minutes", "result": "inhibited TNFα induced NF-κB activity in a dose-dependent manner"}, {"measurement": "IC50", "setting": "NF-κB [2]; densitometric scanning of the EMSA and Western blots, TNFα, read-out: IC₅₀", "result": 3.4, "unit": "µM"}, {"measurement": "rank as inhibitor of proteolysis of IκBα", "setting": "IκBα [3]", "result": "the most potent inhibitor"}]}, {"compound": "CC(C)C[C@H](NC(=O)OCc1ccccc1)C(=O)N[C@@H](Cc1ccc(O)cc1)C(=O)CCl", "note": "[Benzyloxycarbonyl-Leu-Tyr-chloromethylketone] (Cbz-Leu-Tyr-CH2Cl)", "values": [{"measurement": "IC90", "setting": "NF-κB [4]; 70Z/3 cells", "result": 10, "unit": "µM"}]}, {"compound": "Cc1ccc(S(=O)(=O)NC(CCCCN)C(=O)CCl)cc1", "note": "(stereo not drawn) [TLCK, Tosyl-Lys-chloromethylketone]", "values": [{"measurement": "IC90", "setting": "NF-κB [1]", "result": 100, "unit": "µM"}, {"measurement": "induction of NF-κB activity in response to PMA", "setting": "NF-κB [4]; 70Z/3 cells", "result": "could not prevent"}, {"measurement": "IC90", "setting": "NF-κB [4]; 70Z/3 cells", "result": 100, "unit": "µM"}]}, {"compound": "C[C@@H]1C[C@@H]([C@H](O)CC2CC(=O)NC(=O)C2)C(=O)[C@@H](C)C1", "note": "[CHX, cycloheximide]", "values": [{"measurement": "DNA binding of NF-κB", "setting": "NF-κB [4]; 1 hour treatment of 70Z/3 cells with CHX, no PMA", "result": "induced only weakly"}, {"measurement": "half-life of IκBα", "setting": "IκBα [5]; CHX-treated 70Z/3 cells, 25 µg/ml, no PMA", "result": "approximately 138 minutes"}, {"measurement": "inhibition at 10 µg/mL", "setting": "70Z/3 cells", "result": 90, "unit": "%"}]}, {"compound": "COC(=O)C(CCCCN)NS(=O)(=O)c1ccc(C)cc1.Cl", "note": "(stereo not drawn) [tosyl-Lys-methylester]", "values": [{"measurement": "induction of NF-κB DNA-binding activity in response to PMA and TNF-α", "setting": "NF-κB [1]", "result": "not effective"}]}, {"compound": "CC(=O)N[C@@H](CC(C)C)C(=O)N[C@@H](CC(C)C)C(=O)N[C@H](C=O)CCCNC(=N)N", "note": "[Leupeptin]", "values": [{"measurement": "induction of NF-κB DNA-binding activity in response to PMA and TNF-α", "setting": "NF-κB [1]", "result": "not effective"}]}, {"compound": "O=c1oc(Cl)c(Cl)c2ccccc12", "note": "[3,4-Dichloroisocoumarin]", "values": [{"measurement": "IC90", "setting": "NF-κB [1]", "result": 20, "unit": "µM"}]}, {"compound": "CCCCCCCCCCCCCC(=O)O[C@@H]1[C@@H](C)[C@@]2(O)[C@@H](C=C(CO)C[C@]3(O)C(=O)C(C)=C[C@@H]23)[C@@H]2C(C)(C)[C@]12OC(C)=O", "note": "[PMA, phorbol 12-myristate 13-acetate]", "values": [{"measurement": "enhancement of reporter activity (HIV-LTR-Luc) over basal", "setting": "NF-κB [6]", "result": "two-fold"}, {"measurement": "time after stimulation until most of the IκBα had decayed", "setting": "IκBα [5]; 70Z/3 cells", "result": "≤ 5", "unit": "min"}, {"measurement": "half-life of IκBα", "setting": "IκBα [5]; protein synthesis-arrested (CHX) 70Z/3 cells stimulated with PMA, phase of fastest decay", "result": 1.5, "unit": "min"}]}, {"compound": "CC(=O)NC(Cc1ccccc1)C(=O)Oc1ccc2ccccc2c1", "note": "(racemic) [N-Acetyl-DL-Phe-β-Naphthylester (APNE), N-Acetyl-DL-Phe-β-Naphthylester]", "values": [{"measurement": "IC90", "setting": "NF-κB [1]", "result": 200, "unit": "µM"}]}, {"compound": "Cc1ccc(S(=O)(=O)N[C@@H](Cc2ccccc2)C(=O)CCl)cc1", "note": "[TPCK, Tosyl-Phe-chloromethylketone]", "values": [{"measurement": "IC90", "setting": "NF-κB [1]", "result": 20, "unit": "µM"}, {"measurement": "induction of NF-κB activity in response to PMA", "setting": "NF-κB [4]; 70Z/3 cells", "result": "fully inhibited"}, {"measurement": "IC90", "setting": "NF-κB [4]; 70Z/3 cells", "result": 20, "unit": "µM"}, {"measurement": "NF-κB activity when added after stimulation", "setting": "NF-κB [4]; 70Z/3 cells, added after stimulation with PMA, IL-1 or LPS", "result": "did not strongly interfere"}, {"measurement": "activation of NF-κB by IL-1β and LPS", "setting": "NF-κB [4]; 70Z/3 cells, treated 10 minutes before stimulation", "result": "prevented"}, {"measurement": "activation of NF-κB by TNF-α", "setting": "NF-κB [7]", "result": "prevented"}, {"measurement": "inducible degradation of IκBα", "setting": "IκBα [8]", "result": "blocked both the inducible modification and degradation of IκBα completely"}, {"measurement": "inducible modification (phosphorylation) of IκBα", "setting": "IκBα [8]", "result": "blocked both the inducible modification and degradation of IκBα completely"}, {"measurement": "decay of IκB-α in response to PMA", "setting": "IκBα [5]; 25 µM, 1 hour pretreatment, 70Z/3 cells", "result": "fully inhibited"}]}]}
